According to patent US7056903B2, “Carboxylic acid derivatives as IP antagonists” (Syntex (U.S.A.) LLC, priority 2000, dated 2006):
Values joined by “and” are separate entries in the source; they are usually repeats but may differ in a detail not shown here. Identical values can stand only once. Counter-ions that a name gives are not always drawn.

Row | melting point | Structure (SMILES)
1 | 181.4 to 184.5 °C | O=C(NC(Cc1cncnc1)C(=O)O)OCc1cc2cc(-c3ccccc3)ccc2o1 (stereo not drawn) [Compound 173, 2-(5-phenyl-benzofuran-2-ylmethoxycarbonylamino)-3-pyrimidin-5-yl-propionic acid]
2 | 130 to 154.5 °C | O=C(N[C@H](Cc1ccc(Cl)cc1)C(=O)O)OCc1cc2cc(-c3ccc(F)cc3)ccc2o1 [Compound 118, (R)-3-(4-chloro-phenyl)-2-[5-(4-fluoro-phenyl)-benzofuran-2-ylmethoxycarbonylamino]-propionic acid]
3 | 136 to 140 °C | O=C(N[C@H](Cc1ccc(Br)cc1)C(=O)O)OCc1cc2cc(-c3ccccc3)ccc2o1 [Compound 107, (R)-3-(4-bromo-phenyl)-2-(5-phenyl-benzofuran-2-ylmethoxycarbonylamino)-propionic acid]
4 | 154 to 156 °C | O=C(N[C@H](Cc1ccccc1)C(=O)O)OCc1cc2cc(-c3ccccc3)ccc2o1 [Compound 19, (R)-2-(5-Phenyl-benzofuran-2-ylmethoxycarbonylamino)-3-phenyl-propionic acid]
5 | 136.3 to 138.6 °C | O=C(N[C@H](Cc1ccccc1)C(=O)O)OCc1cc2cc(C(=O)c3ccccc3)ccc2o1 [Compound 136, (R)-3-phenyl-2-[5-(1-phenyl-methanoyl)-benzofuran-2-ylmethoxycarbonylamino]-propionic acid]
6 | 150.6 to 160 °C | O=C(N[C@H](Cc1ccc(Br)cc1)C(=O)O)OCc1cc2cc(-c3ccc(F)cc3)ccc2o1 [Compound 119, (R)-3-(4-bromo-phenyl)-2-[5-(4-fluoro-phenyl)-benzofuran-2-ylmethoxycarbonylamino]-propionic acid]
7 | 176.9 to 178.4 °C | O=C(N[C@H](Cc1ccc(F)cc1)C(=O)O)OCc1cc2cc(-c3cccnc3)ccc2o1 (hydrate or solvate) [Compound 125, (R)-3-(4-fluoro-phenyl)-2-(5-pyridin-3-yl-benzofuran-2-ylmethoxycarbonylamino)-propionic acid]
8 | 132 to 134.5 °C | O=C(N[C@H](Cc1ccc(F)cc1)C(=O)O)OCc1cc2cc(-c3ccc4c(c3)OCO4)ccc2o1 [Compound 116, (R)-2-(5-benzo[1,3]dioxol-5-yl-benzofuran-2-ylmethoxycarbonylamino)-3-(4-fluoro-phenyl)-propionic acid]
9 | 101.1 to 103.2 °C | O=C(NC(Cc1ccc(F)cc1)C(=O)O)OCc1cc2cc(-c3cc(Cl)cc(Cl)c3)ccc2o1 (stereo not drawn) [Compound 177, 2-[5-(3,5-dichloro-phenyl)-benzofuran-2-ylmethoxycarbonylamino]-3-(4-fluoro-phenyl)-propionic acid]
10 | 122 to 123.1 °C | O=C(NC(Cc1ccccc1)C(=O)O)OCc1ccc(COc2ccc(Cl)cc2)cc1 (stereo not drawn) [Compound 155, 2-[4-(4-chloro-phenoxymethyl)-benzyloxycarbonylamino]-3-phenyl-propionic acid]
11 | 219 to 220 °C | O=C(NC(Cc1ccncc1)C(=O)O)OCc1cc2cc(-c3ccccc3)ccc2o1 (stereo not drawn) [Compound 163, 2-(5-phenyl-benzofuran-2-ylmethoxycarbonylamino)-3-pyridin-4-yl-propionic acid]
12 | 187 to 189 °C | O=C(N[C@H](Cc1ccccc1)C(=O)O)OCc1ccc2oc(-c3cccc4[nH]ccc34)nc2c1 [Compound 161, (R)-2-[2-(1H-indol-4-yl)-benzoxazol-5-ylmethoxycarbonylamino]-3-phenyl-propionic acid]
13 | 104.2 to 104.7 °C | O=C(NC(Cc1ccccc1)C(=O)O)OCc1ccc(COc2ccccc2)c(F)c1 (stereo not drawn) [Compound 82, 2-(3-fluoro-4-phenoxymethyl-benzyloxycarbonylamino)-3-phenyl-propionic acid]
14 | 178 to 181 °C | O=C(O)C(Cc1ccccc1)NC(=O)C(O)c1ccc(OCc2cccc3[nH]ccc23)cc1 (stereo not drawn) [Compound 88, 2-{2-hydroxy-2-[4-(1H-indol-4-ylmethoxy)-phenyl]-ethanoylamino}-3-phenyl-propionic acid]
15 | 86.7 to 100.1 °C | O=C(N[C@H](Cc1ccc(F)cc1)C(=O)O)OCc1cc2cc(-c3ccccc3Cl)ccc2o1 [Compound 115, (R)-2-[5-(2-chloro-phenyl)-benzofuran-2-ylmethoxycarbonylamino]-3-(4-fluoro-phenyl)-propionic acid]
16 | 98.9 to 101.7 °C | O=C(N[C@H](Cc1ccccc1)C(=O)O)OCc1cc2cc(-c3ccc(F)c(F)c3)ccc2o1 [Compound 104, (R)-2-[5-(3,4-Difluoro-phenyl)-benzofuran-2-ylmethoxycarbonylamino]-3-phenyl-propionic acid]
17 | 113.3 to 114.1 °C | O=C(NC(Cc1ccccc1)C(=O)O)OCc1ccc(CSc2ccccc2)cc1 (stereo not drawn) [Compound 183, 3-phenyl-2-(4-phenylsulfanylmethyl-benzyloxycarbonylamino)-propionic acid]
18 | 159 to 160 °C | O=C(N[C@H](Cc1ccccc1)C(=O)O)OCc1cc2cc(-c3cccc(F)c3F)ccc2o1 [Compound 100, (R)-2-[5-(2,3-difluoro-phenyl)-benzofuran-2-ylmethoxycarbonylamino]-3-phenyl-propionic acid]

Row | melting point | Structure (SMILES)
19 | 105 to 108 °C | O=C(NC(Cc1cccc(NS(=O)(=O)c2ccccc2)c1)C(=O)O)OCc1cc2cc(-c3ccccc3)ccc2o1 (stereo not drawn) [Compound 171, 3-(3-Benzenesulfonylamino-phenyl)-2-(5-phenyl-benzofuran-2-ylmethoxycarbonylamino)-propionic acid]
20 | 192 to 192.5 °C | O=C(NC(Cc1ccccc1)C(=O)O)OCc1cc2cc(-c3cncnc3)ccc2o1 (stereo not drawn) [Compound 175, 3-phenyl-2-(5-pyrimidin-5-yl-benzofuran-2-ylmethoxycarbonylamino)-propionic acid]
21 | 174.7 to 175 °C | O=C(NC(Cc1cccnn1)C(=O)O)OCc1cc2cc(-c3ccccc3)ccc2o1 (stereo not drawn) [Compound 167, 2-(5-phenyl-benzofuran-2-ylmethoxycarbonylamino)-3-pyridazin-3-yl-propionic acid]
22 | 143 to 145.7 °C | O=C(N[C@H](Cc1ccccc1)C(=O)O)OCc1cc2cc(-c3cccnc3)ccc2o1 [Compound 124, (R)-3-phenyl-2-(5-pyridin-3-yl-benzofuran-2-ylmethoxycarbonylamino)-propionic acid]
23 | 158 to 162 °C | O=C(N[C@H](Cc1ccc(F)cc1)C(=O)O)OCc1cc2cc(-c3ccc(F)cc3)ccc2o1 (hydrate or solvate) [Compound 111, (R)-3-(4-fluoro-phenyl)-2-[5-(4-fluorophenyl)-benzofuran-2-ylmethoxycarbonylamino]-propionic acid]
24 | 176.3 to 182 °C | O=C(N[C@H](Cc1ccccc1)C(=O)O)OCC1Cc2cc(-c3ccccc3)ccc2O1 (stereo partly drawn) (as salt: salt) [Compound 68, (R)-3-Phenyl-2-(5-phenyl-2,3-dihydro-benzofuran-2-ylmethoxycarbonylamino)-propionic acid]
25 | 79.9 to 82.6 °C | Cn1cc(C[C@@H](NC(=O)OCc2ccc(COc3ccccc3)cc2)C(=O)O)c2ccccc21 [Compound 170, (R)-3-(1-methyl-1H-indol-3-yl)-2-(4-phenoxymethyl-benzyloxycarbonylamino)-propionic acid]
26 | 201 to 204 °C | O=C(N[C@H](Cc1ccc(F)cc1)C(=O)O)OCc1ccc2oc(-c3ccc(F)cc3)cc2c1 [Compound 140, (R)-3-(4-fluoro-phenyl)-2-[2-(4-fluoro-phenyl)-benzofuran-5-ylmethoxycarbonylamino]-propionic acid]
27 | 105.6 to 106.5 °C | O=C(N[C@H](Cc1ccccc1)C(=O)O)OCc1ccc(OCCCc2ccccc2)cc1 [Compound 87, (R)-3-phenyl-2-[4-(3-phenyl-propoxy)-benzyloxycarbonylamino]-propionic acid]
28 | 90 to 95 °C | O=C(N[C@H](Cc1ccccc1)C(=O)O)OCc1cc2cc(-c3ccc4[nH]ccc4c3)ccc2o1 [Compound 138, (R)-2-[5-(1H-indol-5-yl)-benzofuran-2-ylmethoxycarbonylamino]-3-phenyl-propionic acid]
29 | 177.6 to 178.6 °C | O=C(NC(Cc1ccccc1)C(=O)O)OCc1coc2ccc(-c3ccccc3)cc12 (stereo not drawn) [Compound 172, 2-(5-Phenyl-benzofuran-3-ylmethoxycarbonylamino)-3-phenyl-propionic acid]
30 | 190.3 to 193.5 °C | CC(=O)Nc1cccc(OCc2ccc(COC(=O)N[C@H](Cc3ccccc3)C(=O)O)cc2)c1 [Compound 79, (R)-2-[4-(3-acetylamino-phenoxymethyl)-benzyloxycarbonylamino]-3-phenyl-propionic acid]
31 | 125 to 131 °C | O=C(N[C@H](Cc1ccccc1)C(=O)O)OCc1cc2cc(-c3ccc4c(c3)OCO4)ccc2o1 (hydrate or solvate) [Compound 97, (R)-2-(5-benzo[1,3]dioxol-5-yl-benzofuran-2-ylmethoxycarbonylamino)-3-phenyl-propionic acid]
32 | 89.4 to 92.6 °C | O=C(N[C@H](Cc1ccccc1)C(=O)O)OCc1cc2cc(-c3cc(F)ccc3F)ccc2o1 [Compound 103, (R)-2-[5-(2,5-difluoro-phenyl)-benzofuran-2-ylmethoxycarbonylamino]-3-phenyl-propionic acid]
33 | 106.8 to 108.2 °C and 105.9 to 108.5 °C | O=C(NC(Cc1ccccc1)C(=O)O)OCc1ccc(COc2cccc3[nH]ccc23)cc1 (stereo not drawn) [Compound 41, 2-[4-(1H-indol-4-yloxymethyl)-benzyloxycarbonylamino]-3-phenyl-propionic acid]
34 | 129.5 to 144 °C | O=C(N[C@H](Cc1ccccc1)C(=O)O)OCc1cc2cc(-c3ccc(Cl)cc3)ccc2o1 (hydrate or solvate) [Compound 94, (R)-2-[5-(4-chloro-phenyl)-benzofuran-2-ylmethoxycarbonylamino]-3-phenyl-propionic acid]
35 | 150.2 to 152.4 °C | O=C(NC(Cc1ccccc1)C(=O)O)OCc1ccc(CCOc2ccccc2)cc1 (stereo not drawn) [Compound 73, 2-[4-(2-Phenoxy-ethyl)-benzyloxycarbonylamino]-3-phenyl-propionic acid]
36 | 176 to 177 °C | O=C(N[C@H](Cc1ccccc1)C(=O)O)OCc1ccc2[nH]c(-c3ccccc3)cc2c1 [Compound 132, (R)-3-phenyl-2-(2-phenyl-1H-indol-5-ylmethoxycarbonylamino)-propionic acid]
